What was measured:
[1] = biological target: CB1 receptor (Mus musculus, UniProt P47746); assay: Food intake in 24 h-food deprived mice (fasting/refeeding); type: in vivo, C57B1/6 mice; set-up: tissue Charles River Laboratories (France) (animals); host or cells: living mice, whole animal; conditions: for effect on food intake in 24 h-food deprived mice: food intake over 1 h
[2] = tested on: NMDA receptors; assay: Whole cell currents induced by NMDA in nucleus accumbens principal neurons; type: cell-based, mouse; conditions: −30 mV
Experimental: NMDAR-mediated currents: Changes in holding currents induced by NMDA were measured in cells voltage clamped at −30 mV, to relieve NMDAR from the voltage-dependent magnesium block. AMPAR and GABA-A receptors were blocked with DNQX 20 μM and picrotoxine 50 μM, respectably.
To quantify NMDA receptors-mediated currents we used a different strategy. Because of its slow kinetics and voltage dependence, the isolation of NMDAR-mediated mEPSC is not as reliable as for AMPAR-mediated currents. Thus, we decided to record whole cell currents in response exogenously applied NMDA. In NAc PN voltage-clamped at −30 mV, bath perfusion of NMDA 25 μM for 1 minute induced an inward current of similar magnitude in control slices (115±15.5 pA) and in slices pre-treated with pregnenolone (100 nM: 107±9.6 pA; 1 μM: 108.9±12.5 pA; p=0.91) (FIG. 17 B).

[3] = biological target: T1, CB1 receptor (Rattus norvegicus, UniProt P20272); assay: THC-induced increase in food intake in ad libitum fed Wistar rats; type: in vivo; set-up: tissue Charles River Laboratories (France) (animals); host or cells: living Wistar rats, whole animal
T1 sequence (P20272 whole entry): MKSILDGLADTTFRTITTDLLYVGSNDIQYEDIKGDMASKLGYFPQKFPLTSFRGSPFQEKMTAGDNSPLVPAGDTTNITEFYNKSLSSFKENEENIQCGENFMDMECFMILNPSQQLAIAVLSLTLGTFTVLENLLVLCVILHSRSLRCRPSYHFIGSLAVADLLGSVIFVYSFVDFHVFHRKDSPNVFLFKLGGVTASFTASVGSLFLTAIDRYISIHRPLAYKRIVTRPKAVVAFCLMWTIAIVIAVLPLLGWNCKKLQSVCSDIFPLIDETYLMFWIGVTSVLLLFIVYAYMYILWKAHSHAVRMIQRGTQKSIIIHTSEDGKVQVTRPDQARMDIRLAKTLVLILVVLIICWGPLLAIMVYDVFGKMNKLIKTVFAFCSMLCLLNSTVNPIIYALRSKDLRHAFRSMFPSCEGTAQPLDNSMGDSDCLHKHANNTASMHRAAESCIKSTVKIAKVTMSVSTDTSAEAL
Experimental: Food intake was evaluated by measuring consumption of food in the home cages of the animals. For each animal, 50-100 g of standard laboratory chow (U.A.R., France) was placed in the cleaned home cage. The remaining amount of food was weighted 1 h later and the amount of food consumed calculated.

[4] = Diet induced obesity, body weight and body composition; type: in vivo, C57BL/6J mice
Experimental: 2-months old male C57BL/6J mice were ad libitum fed a 60% high-fat diet (HFD; Catalog #D12492, Research Diets, New Brunswick, N.J.) for 8 weeks and subsequently treated either with pegnenolone or vehicle. Homogeneous distribution of the animals in the 3 treatment groups was guaranteed by matching their body weight, fat mass and fasting glucose levels before the start of the pharmacological treatments.
Fat mass and lean mass were assessed in vivo using an EchoMRI analyzer (EchoMedical Systems, Houston, Tex.) before the mice were placed on the HFD, as well as immediately before and at the end of the chronic treatment with pregnegnolone or its vehicle.
In this example the inventors analyzed the ability of pregnenolone to inhibit the effects of CB1 activation in the context of obesity. The effects of pregnenolone on metabolic disorders were studied using the model of diet induced obesity (DIO) in mice. In this procedure animals are maintained on a high fat diet (60% of fat) which progressively induce obesity. After eight weeks on this diet which already induced overweight and excessive fat accumulation in these animals the treatment with pregnenolone was started for thirty days (once a day 2 mg/kg or 5 mg/kg, n=8).

[5] = tested on: GABA-A receptors; assay: GABA-A receptors-mediated mIPSC in nucleus accumbens principal neurons; type: cell-based, mouse
Experimental: GABA-A receptors-mediated currents: mIPSC were recorded in the presence of the AMPAR and NMDAR antagonists (DNQX 20 μM and AP-5 50 μM, respectably). mEPSC-mIPSC analysis: Typically, after breaking in, cells were left to equilibrate for 20 minutes and the subsequent 10 minutes recording of mEPSC-mIPSC was used to analysis. mEPSC-mIPSC were detected using a template generated from averaging several typical events (Clampfit 10, Molecular Devices). The template was slid along the data trace one point at a time. At each position, the template was optimally scaled and offset to fit the data. A lower-amplitude threshold of 7 pA and 10 pA were applied for mEPSC and mIPSC, respectably, equivalent to 2.5SD of baseline noise. For each cell, the kinetics of mEPSC-mIPSC was measured from the average event using Clampfit 10. To estimate decay times, a two exponentials curve was fitted between 5 and 95% of the decay phase of the current given by the following equation: y(t)=A1·e^(−t/τ1)+A2·e^(−t/τ2), where A is the amplitude, t is the time and τ is the decay time constant. The weighted tau was then calculated.
In order to evaluate the effect of pregnenolone on the function of post-synaptic GABA we recorded mIPSC and compared its amplitude and decay time between groups. We observed that mIPSC amplitude and decay time were similar between controls (amplitude: 17.9±0.8 pA; decay time: 11.1±0.3 ms) and slices pre-treated with pregnenolone (100 nM and 1 μM, respectively; amplitude: 17.3±0.4 pA, 15.9±0.4 pA; decay time: 10.2±0.4 ms, 10.8±0.5 ms).

[6] = biological target: T1, CB1 receptor; assay: THC inhibition of AMPAR-mediated EPSC, patch clamp in nucleus accumbens slices; type: cell-based, rats; set-up: from tissue; host or cells: acute coronal brain slices, nucleus accumbens; conditions: slices pre-treated with Pregnenolone 100 nM
[7] = tested on: TNF-α; assay: Increase in plasma TNF-alpha induced by LPS; type: in vivo, mice; conditions: pregnenolone 6 mg/kg sc 30 min before LPS; measured 90 min after LPS
Experimental: Trunk blood was collected and centrifuged at 3000 rpm for 15 min at 4° C. Plasma was stored at −80° C. until measurement of TNFα was carried out. Plasma TNFα levels were assessed using an ELISA kit, following the manufacturer's instructions (Fisher Scientific, Catalog #E6473C).
In this example the inventors further analyzed the ability of pregnenolone to inhibit the effects of CB1 activation in the context of inflammation and fibrosis. […] TNF-alpha is one of the cellular responses to inflammatory stimuli more involved in promoting fibrosis.
Other pregnenolone derivatives (Table 4) for which the metabolism in downstream active steroids was reduced were tested for their ability to inhibit: 1. effects of the THC-induced cannabinoid tetrade (decrease in body temperature and in locomotor activity, (THC 10 mg/kg, compounds 6 mg/kg 15-30 min before THC) that is recognized as a sound method to evaluate the activation of the CB1 receptor; 2. THC-induced increase in food intake a typical effect of CB1 activation (THC between 0.5 and 1 mg/kg, compounds between 2 and 4 mg/kg 30 min before THC); 3. the increase in TNFalpha induced by LPS, another effects typical of CB1 […] (compounds 6 mg/kg 15 min before LPS). For each compound and each test independent groups of animals were used (at least n=6 per compound/per test).

[8] = pregnenolone 5 mg/kg, magnetic resonance

Chain of CB1 receptor (Mus musculus, UniProt P47746) (P47746 whole entry): as the sequence (P20272 whole entry) above, with E95D counted along it

CC(=O)[C@H]1CC[C@H]2[C@@H]3CC=C4C[C@@H](O)CC[C@]4(C)[C@H]3CC[C@]12C [Pregnenolone, 5-Pregnen-3β-ol-20-one]
first statistically significant dose for decrease of food intake ([1]; food-deprived (food-restricted) mice, no THC): 6 mg/kg
effect on food intake in 24 h-food deprived mice ([1]; no THC): dose-dependently decreased food intake
effect on food intake in 24 h-food deprived mice ([1]; no THC, listed as pregnenolone): dose dependently decreased food intake
effect on food intake over 24 hours in fasting/refeeding model ([1]; pregnenolone): no significant effect was seen over 24 hours
inward current induced by NMDA 25 μM ([2]; slices pre-treated with 100 nM): 107±9.6 pA
inward current induced by NMDA 25 μM ([2]; slices pre-treated with 1 μM): 108.9±12.5 pA
effect on THC-induced food intake in sated rats ([3]; THC 0.5 mg/kg, pregnenolone 30 min before THC): dose-dependently decreased THC-induced food intake
effect on basal food intake ([3]; pregnenolone 2 mg/kg, FIG. 3 A, B): did not significantly modified basal food intake
dose with statistically significant effect on THC-induced food intake ([3]; sated rats, THC 0.5 mg/kg): 2 mg/kg
effect on food intake in DIO model ([4]; high fat diet, food intake over 24 hours): did not modify food intake
effect on body weight ([4]; high fat diet, once a day 2 or 5 mg/kg for thirty days, effect after 15 days): decreased body weight
effect on fat mass [4, 8]: the increase in fat mass was suppressed
effect on lean mass [4, 8]: the decrease in lean mass was blunted
mIPSC amplitude ([5]; slices pre-treated with 100 nM): 17.3±0.4 pA
mIPSC decay time ([5]; slices pre-treated with 100 nM): 10.2 ± 0.4 ms
mIPSC amplitude ([5]; slices pre-treated with 1 μM): 15.9±0.4 pA
mIPSC decay time ([5]; slices pre-treated with 1 μM): 10.8 ± 0.5 ms
inhibition of EPSC amplitude by THC [6]: 15.1±1.8 % of inhibition
effect on increase in TNF-alpha induced by LPS [7]: halved the increase in TNF-alpha

Source: patent US10150793B2, “Antagonists of CB1 receptor” (INSERM (Institut National de la Santé et de la Recherche …, priority 2011, dated 2018)
